According to ChEMBL document CHEMBL5385888, “Structure-based discovery of pyrazolamides as novel ERRγ inverse agonists” (Eur J Med Chem, 2023):
Active and inactive are the calls of the source. The calls are words filed in the database; no cut-off is given here.

target: T1, Estrogen-related receptor gamma (Mus musculus, UniProt P62509); experiment: Inverse agonist activity at Gal4-tagged mouse ERR-gamma LBD transfected in HEK293T cells co-expressing FR-luc assessed as inhibition of transcriptional activity incubated for 24 hrs by luciferase reporter gene assay; type: cell-based; details: not given
T1 sequence (P62509 whole entry): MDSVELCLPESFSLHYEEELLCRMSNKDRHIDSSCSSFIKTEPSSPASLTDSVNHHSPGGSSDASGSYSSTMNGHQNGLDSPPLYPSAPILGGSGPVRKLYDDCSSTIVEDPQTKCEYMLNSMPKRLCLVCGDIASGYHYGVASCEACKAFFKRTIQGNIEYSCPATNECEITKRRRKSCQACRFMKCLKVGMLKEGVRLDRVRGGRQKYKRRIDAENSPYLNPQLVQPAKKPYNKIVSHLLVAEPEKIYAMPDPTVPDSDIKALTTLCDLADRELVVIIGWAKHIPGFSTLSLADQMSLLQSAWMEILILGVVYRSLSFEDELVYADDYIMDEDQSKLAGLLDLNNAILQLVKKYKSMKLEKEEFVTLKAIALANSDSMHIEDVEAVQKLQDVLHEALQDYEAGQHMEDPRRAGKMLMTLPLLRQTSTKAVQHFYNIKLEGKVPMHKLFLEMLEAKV

Compound | IC50 [µM]
COc1cccc(-c2nn(-c3ccccc3)cc2C(=O)Nc2cccc(Oc3cccnc3)c2)c1 | 2.11
COc1cc(C)ccc1Oc1ccc(NC(=O)c2cn(-c3ccccc3)nc2-c2ccccc2)cc1 | 9.48
COc1cccc(Oc2cc(N)cc(NC(=O)c3cn(-c4ccccc4)nc3-c3cccc(OC)c3)c2)c1 | 8.47
COC(=O)c1cccc(Oc2cc(N)cc(NC(=O)c3cn(-c4ccccc4)nc3-c3ccccc3)c2)c1 | 8.42
O=C(Nc1cc(Oc2cccnc2)cc(C(F)(F)F)c1)c1cn(-c2ccccc2)nc1-c1ccccc1 | 6.75
COc1ccc(-c2nn(-c3ccccc3)cc2C(=O)Nc2ccc(Oc3ccc(C)cc3OC)cc2)cc1OC | 10.4
COc1ccc(-c2nn(-c3ccccc3)cc2C(=O)Nc2ccc(Oc3ccc(C(C)C)cc3)cc2)cc1OC | 9.95
COc1cc(C)ccc1Oc1ccc(NC(=O)c2cn(-c3ccccc3)nc2-c2ccc(C)cc2)cc1 | 5.48
O=C(Nc1cccc(Oc2cccnc2)c1)c1cn(-c2ccccc2)nc1-c1ccccc1 | 1.33
COc1cccc(-c2nn(-c3ccccc3)cc2C(=O)Nc2cc(N)cc(Oc3cccnc3)c2)c1 | 2.91
COc1cccc(Oc2cc(N)cc(NC(=O)c3cn(-c4ccccc4)nc3-c3ccccc3)c2)c1 | 13.5

target: T2, Estrogen-related receptor gamma (Mus musculus) (UniProt P62509); experiment: Inverse agonist activity at Gal4-tagged mouse ERR-gamma LBD transfected in HEK293T cells co-expressing FR-luc assessed as inhibition of transcriptional activity at 10 uM incubated for 24 hrs by luciferase reporter gene assay; type: cell-based; details: not given
T2 sequence (whole entry): T1 sequence (P62509 whole entry)

Compound | inhibition
Nc1cc(NC(=O)c2cn(-c3ccc(CO)cc3)nc2-c2ccccc2)cc(Oc2cccnc2)c1 | inactive
COc1cccc(-c2nn(-c3ccccc3)cc2C(=O)Nc2cc(OCCCN(C)C)cc(C(F)(F)F)c2)c1 | inactive
COc1cccc(-c2nn(-c3ccccc3)cc2C(=O)Nc2cc(N)cc(OCCN(C)C)c2)c1 | inactive
COc1cccc(-c2nn(-c3ccccc3)cc2C(=O)Nc2cc(N)cc(OCCCN(C)C)c2)c1 | inactive
CN(C)CCOc1cc(NC(=O)c2cn(-c3ccccc3)nc2-c2ccccc2)cc(C(F)(F)F)c1 | inactive
CCN(CC)C(=O)c1ccc(-n2cc(C(=O)Nc3cc(N)cc(Oc4cccnc4)c3)c(-c3ccccc3)n2)cc1 | inactive
COC(=O)c1ccc(-n2cc(C(=O)Nc3cc(N)cc(Oc4cccnc4)c3)c(-c3ccccc3)n2)cc1 | inactive
COc1cccc(-c2nn(-c3ccccc3)cc2C(=O)Nc2cc(OCCN(C)C)cc(C(F)(F)F)c2)c1 | inactive
CN(C)CCCOc1cc(NC(=O)c2cn(-c3ccccc3)nc2-c2ccccc2)cc(C(F)(F)F)c1 | inactive
CN(C)CCCOc1cc(N)cc(NC(=O)c2cn(-c3ccccc3)nc2-c2ccccc2)c1 | inactive
Nc1cc(NC(=O)c2cn(-c3ccc(C(=O)O)cc3)nc2-c2ccccc2)cc(Oc2cccnc2)c1 | inactive

same assay, conditions: filed as inverse agonist

Compound | Activity
Cc1ccc(-c2nn(-c3ccccc3)cc2C(=O)Nc2ccc(Oc3ccc(C(C)C)cc3)cc2)cc1 | Active
